Measurements published in US20240174744A1, “METHODS OF TREATMENT USING PROTEIN BINDERS TO IRHOM2 EPITOPES” (SCIRHOM GMBH, priority 2021, published 2024).

What was measured:
[1] = system: PMA-induced release of HB-EGF from U-937 cells; assay: ELISA-based HB-EGF release assay, PMA-stimulated U-937 cells; assay type: cell-based; details: Homo sapiens, murine (m) and chimeric (ch) antibodies 3 μg/ml, Batimastat 10 μM, PMA 25 ng/ml, 6 hours
Protocol: Complementary to Example 29 described above, ELISA-based HB-EGF release assays were performed to verify the inhibitory effects of the antibodies of the present disclosure on PMA-induced release of endogenous HB-EGF from human U-937 cells.
The production of the recombinant antibody material that was used in this example is identical to the one described in Example 25. The ELISA-based HB-EGF release assay that was used in this example is identical with the one described in Example 30, with the only difference, that U-937 (European Collection of Authenticated Cell Cultures, UK) cells were used instead of THP-1 (American Type Culture Collection, USA) cells.

[2] = system: PMA-induced release of HB-EGF from PBMCs from healthy donors; assay: ELISA-based HB-EGF release assay, PBMCs from healthy donors; assay type: cell-based; details: Homo sapiens, PBMC; recombinant murine antibodies 1 μg/ml; Batimastat 10 μM; PMA 25 ng/ml, 6 hours
Protocol: In the following study, ELISA-based HB-EGF release assays were performed to analyze the inhibitory effects of the antibodies of the present disclosure on PMA-induced release of endogenous HB-EGF from primary human material obtained from healthy donors using peripheral blood mononuclear cells (PBMCs).
In brief, on day 1, Nunc black MaxiSorp® 96-well plates (Thermo Fisher Scientific, USA) were coated overnight with 100 μl per well of mouse anti-human HB-EGF capture antibody (provided as part of the DuoSet ELISA kit) at 4 μg/ml TBS at 4° C. On day 2, the capture antibody solution was removed and MaxiSorp® plates were blocked with 300 μl per well of TBS, 1% BSA at room temperature for 3 hours. […] Using an infinite M1000 (Tecan Group, Switzerland) microplate reader, the fluorescence of each well was collected at an excitation wavelength of 435 nm and an emission wavelength of 555 nm.

`CNC(=O)[C@H](Cc1ccccc1)NC(=O)[C@H](CC(C)C)[C@H](CSc1cccs1)C(=O)NO` [Batimastat] showed an inhibition at 10 µM [1] of 100% and an inhibition at 10 µM [2] of 94.9%.
